Reference: PubChem BioAssay (NCI)
“And” between values parts separate entries of the source, which are not always exact repeats. Identical values can stand only once.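 Briefly, cells in 96-well plates were exposed to five compound concentrations for 48 h, and endpoints were estimated by linear interpolation. GI50 = concentration required for 50% inhibition of growth. Definition used: TGI = concentration required for complete inhibition of growth.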

Legend:
Assay in all cases: NCI-60 cell line screen, 48 h
[1] = tested on: SK-OV-3 ovarian
[2] = tested on: UACC-62 melanoma
[3] = tested on: SW-620 colon
[4] = tested on: ACHN renal
[5] = tested on: A549 NSCLC
[6] = tested on: IGROV1 ovarian
[7] = tested on: OVCAR-5 ovarian
[8] = tested on: HOP-62 NSCLC
[9] = tested on: KM12 colon
[10] = tested on: MALME-3M melanoma

Compound	GI50 [1] [µM]	TGI [1]	GI50 [2] [µM]	TGI [2]	GI50 [3] [µM]	TGI [3] [µM]	GI50 [4] [µM]	TGI [4] [µM]	GI50 [5] [µM]	TGI [5]	GI50 [6] [µM]	TGI [6]	GI50 [7] [µM]	TGI [7]	GI50 [8] [µM]	TGI [8]	GI50 [9] [µM]	TGI [9] [µM]	GI50 [10] [µM]	TGI [10]
COc1ccc(-n2c(=S)sc3c(Cl)nc(C)nc32)c(OC)c1	14.3	27.3 µM	2.06	4.69 µM	2.57	5.44	2.08	3.97	4.45	15.8 µM	1.93	3.99 µM	6.15	20.9 µM	2.57	7.68 µM	3.33	11.5	2.23	6.23 µM
COC(=O)C1CC(c2ccc(OC)c(OC)c2)OC1=O (mixture of isomers)	–	> 100 µM	–	> 100 µM	–	> 100	–	> 100	–	> 100 µM	–	> 100 µM	–	> 100 µM	–	> 100 µM	–	> 100	–	> 100 µM
C[C@@H]1C[C@@H]([C@H](O)CC2CC(=O)NC(=O)C2)C(=O)[C@@H](C)C1	0.275	5.31 µM and 12.2 µM	0.321	8.14 µM and 10.5 µM	0.219	1.23	0.155	–	0.204	1.76 µM and 1.73 µM	0.388	15 µM and 3.15 µM	0.317	14.6 µM and 4.02 µM	0.26	3.63 µM and 1.67 µM	0.215	–	0.235	4.7 µM and 3.5 µM
COc1ccc(-n2cc(-c3ccc(OC)c(OC)c3)[nH]c2=O)cc1	> 100	> 100 µM	> 100	> 100 µM	> 100	> 100	> 100	> 100	> 100	> 100 µM	> 100	> 100 µM	> 100	> 100 µM	> 100	> 100 µM	> 100	> 100	> 100	> 100 µM
Cc1cccc(C2NC(=O)c3ccccc3N2)c1 (stereo not drawn)	–	> 44.6 µM	–	> 100 µM	–	> 100	–	> 100	–	> 100 µM	–	> 100 µM	–	> 100 µM	–	97.1 µM	–	> 100	–	> 100 µM
COc1cc(O)ccc1C(=S)SC	–	> 100 µM	–	> 100 µM	–	> 100	–	> 100	–	> 100 µM	–	> 100 µM	–	> 100 µM	–	> 100 µM	–	> 100	–	> 100 µM
COC(=O)C1C=CCC2CCCCC21N1CCCC1 (stereo not drawn)	–	> 100 µM	–	> 100 µM	–	> 100	–	> 100	–	> 100 µM	–	> 100 µM	–	> 100 µM	–	> 100 µM	–	> 100	–	> 100 µM
COc1cc2c(cc1OCCNC(=O)/C=C1\C[C@H]3C=Nc4cc(OCc5ccccc5)c(OC)cc4C(=O)N3C1)N=C[C@@H]1CCCN1C2=O	25.1	73.1 µM	2.65	9.92 µM	5.36	24.7	25.8	71.5	22.3	52.3 µM	1.42	5.64 µM	4.07	26.3 µM	4.27	23.6 µM	9.31	28.8	2.2	6.69 µM
COc1cc(/C=N/NC(=O)c2cnn3c2NC(c2ccccc2)C3)ccc1OC1CCCC1 (stereo not drawn)	1.57	8.49 µM	0.573	3.67 µM	0.468	2.38	0.666	6.04	0.731	3.86 µM	0.723	9.4 µM	1.84	10.9 µM	0.83	6.47 µM	0.39	4.46	1.02	4.28 µM
Oc1ccc(Cl)cc1C=Nc1cnc2ccccc2c1	–	> 100 µM	–	> 100 µM	–	> 100	–	> 100	–	> 100 µM	–	> 100 µM	–	> 100 µM	–	> 100 µM	–	> 100	–	> 100 µM
CSc1nc(Nc2cccc(NC(=O)CCl)c2)c(C#N)c(-c2cccc([N+](=O)[O-])c2)n1	4.36	17.3 µM	1.35	3.17 µM	1.93	5.11	0.534	1.91	16.6	49.7 µM	0.214	0.685 µM	2.45	6.13 µM	2.55	11.4 µM	1.93	3.92	0.191	0.635 µM
N#C/C(=C\c1ccc2[nH]ccc2c1)C(=O)NCCCCNC(=O)/C(C#N)=C/c1ccc2[nH]ccc2c1	–	> 31.6 µM	–	> 31.6 µM	–	> 31.6	–	> 31.6	–	> 100 µM	–	> 31.6 µM	–	> 31.6 µM	–	> 31.6 µM	–	> 31.6	–	> 31.6 µM
